How the values were obtained:
Assay in all cases: ethoxyresorufin-O-deethylase fluorescence, recombinant membranes
Type in all cases: biochemical
Conditions in all cases: 30 °C; human CPR co-expressed
[1] = molecular target: T1, CYP1C2 (Danio rerio, UniProt A0AC58HLV5)
T1 sequence (A0AC58HLV5 1-514): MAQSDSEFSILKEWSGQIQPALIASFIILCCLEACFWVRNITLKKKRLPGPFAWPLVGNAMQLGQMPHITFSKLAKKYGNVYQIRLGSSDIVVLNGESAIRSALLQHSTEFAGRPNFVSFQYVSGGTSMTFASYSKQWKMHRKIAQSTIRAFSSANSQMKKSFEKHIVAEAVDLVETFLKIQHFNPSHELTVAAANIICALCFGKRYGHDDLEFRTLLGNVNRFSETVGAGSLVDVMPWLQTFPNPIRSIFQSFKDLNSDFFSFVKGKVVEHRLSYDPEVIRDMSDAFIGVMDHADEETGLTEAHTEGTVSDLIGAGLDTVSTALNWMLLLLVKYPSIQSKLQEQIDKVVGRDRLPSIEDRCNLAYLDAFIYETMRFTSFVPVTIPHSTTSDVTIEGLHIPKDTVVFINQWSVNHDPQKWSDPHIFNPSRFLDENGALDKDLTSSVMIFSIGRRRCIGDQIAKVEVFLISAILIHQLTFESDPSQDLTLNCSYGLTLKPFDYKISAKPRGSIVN

[2] = molecular target: T2, CYP1B1 (Danio rerio, UniProt Q1JQ70)
T2 sequence (Q1JQ70 1-526): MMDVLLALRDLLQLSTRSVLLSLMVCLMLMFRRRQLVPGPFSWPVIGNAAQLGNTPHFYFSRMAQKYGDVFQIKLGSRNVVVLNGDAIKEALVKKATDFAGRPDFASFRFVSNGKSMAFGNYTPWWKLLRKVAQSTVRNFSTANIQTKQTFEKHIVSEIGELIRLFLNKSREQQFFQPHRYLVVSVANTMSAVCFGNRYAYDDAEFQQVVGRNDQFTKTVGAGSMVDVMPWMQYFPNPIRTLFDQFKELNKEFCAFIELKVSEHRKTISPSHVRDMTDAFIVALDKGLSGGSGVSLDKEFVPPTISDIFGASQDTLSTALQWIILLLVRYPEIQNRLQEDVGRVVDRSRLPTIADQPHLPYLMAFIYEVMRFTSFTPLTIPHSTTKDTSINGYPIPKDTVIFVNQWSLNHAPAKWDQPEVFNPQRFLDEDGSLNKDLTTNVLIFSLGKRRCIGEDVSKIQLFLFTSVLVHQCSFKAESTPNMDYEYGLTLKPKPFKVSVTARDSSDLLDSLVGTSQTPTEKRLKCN

[3] = molecular target: T3, CYP1C1 (Danio rerio, UniProt A0A8M1N631)
T3 sequence (A0A8M1N631 13-523): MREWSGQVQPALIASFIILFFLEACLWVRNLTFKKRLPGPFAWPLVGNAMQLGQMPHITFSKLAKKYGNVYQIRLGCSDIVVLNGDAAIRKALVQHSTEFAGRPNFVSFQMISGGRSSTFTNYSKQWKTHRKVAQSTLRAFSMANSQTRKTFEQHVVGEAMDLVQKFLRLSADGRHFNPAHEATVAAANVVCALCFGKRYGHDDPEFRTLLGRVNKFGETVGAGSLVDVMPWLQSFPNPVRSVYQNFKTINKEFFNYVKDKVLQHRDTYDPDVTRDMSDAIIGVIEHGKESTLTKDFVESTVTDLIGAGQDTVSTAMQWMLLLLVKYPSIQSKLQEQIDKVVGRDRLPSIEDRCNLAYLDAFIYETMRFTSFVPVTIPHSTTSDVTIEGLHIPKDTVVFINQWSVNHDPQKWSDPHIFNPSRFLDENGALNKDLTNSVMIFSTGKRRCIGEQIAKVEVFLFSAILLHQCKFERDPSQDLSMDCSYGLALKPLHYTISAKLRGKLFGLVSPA

## CCOc1ccc2nc3ccc(=O)cc-3oc2c1 [7-ethoxyresorufin]
[1]
  ethoxyresorufin-O-deethylase fluorescence, recombinant membranes: All CYP1s showed catalytic activity for 7-ER and BFC except for CYP1D1 and CYP3A65
[2]
  ethoxyresorufin-O-deethylase fluorescence, recombinant membranes: All CYP1s showed catalytic activity for 7-ER and BFC except for CYP1D1 and CYP3A65
[3]
  ethoxyresorufin-O-deethylase fluorescence, recombinant membranes: All CYP1s showed catalytic activity for 7-ER and BFC except for CYP1D1 and CYP3A65
